Molecules are shown by their SMILES.

The data set is described as follows: Saturation concentration (solubility) of ketamine in silicone pressure sensitive adhesive.

In the case of `CNC1(c2ccccc2Cl)CCCCC1=O` (racemic) [ketamine, (RS)-(±)-2-(2-chlorophenyl)-2-(methylamino)cyclohexan-1-one], the “Solubility of ketamine in the silicone pressure sensitive adhesive” value is “not more than 1 wt.-%”.
